Our source for the half-life, ED50 and Ri values is ChEMBL document CHEMBL1136394, “Synthesis and in vivo imaging properties of [11C]befloxatone: a novel highly potent positron emission tomography ligand for mono-amine oxidase-A” (Bioorg Med Chem Lett, 2003).

Series [1] can be described thus: Half life was determined. As to conditions: rat. In kind it is ADME.
The test system of series [2] is Mus musculus. Kind of series: Oral effective dose against L-5-hydroxytryptophan induced generalized tremors in mice; Range is 0.1-0.2 mg/Kg. Type of series: functional.
In series [3] the target is T1, Amine oxidase [flavin-containing] A (Rattus norvegicus, UniProt P21396).
T1 sequence (P21396 whole entry): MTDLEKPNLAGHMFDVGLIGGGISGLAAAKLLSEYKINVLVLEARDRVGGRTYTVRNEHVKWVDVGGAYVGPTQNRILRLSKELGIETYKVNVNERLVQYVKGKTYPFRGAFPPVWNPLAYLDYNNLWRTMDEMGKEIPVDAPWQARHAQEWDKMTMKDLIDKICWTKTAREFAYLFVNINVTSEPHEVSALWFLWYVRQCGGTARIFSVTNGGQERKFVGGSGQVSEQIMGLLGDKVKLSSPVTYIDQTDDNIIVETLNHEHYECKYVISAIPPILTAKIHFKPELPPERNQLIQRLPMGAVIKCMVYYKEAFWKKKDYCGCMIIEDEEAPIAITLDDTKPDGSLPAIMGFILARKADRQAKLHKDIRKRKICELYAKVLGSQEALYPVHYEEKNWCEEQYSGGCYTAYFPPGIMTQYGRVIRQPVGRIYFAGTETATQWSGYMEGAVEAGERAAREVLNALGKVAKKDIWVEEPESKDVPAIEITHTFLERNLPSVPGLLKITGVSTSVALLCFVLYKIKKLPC
Briefly: Compound was tested for inhibition of MAOA in rat brain, heart, liver and duodenum homogenates; Range is 1.9-3.6 nM. In kind it is tissue-based.

The test system of series [4] is Mus musculus. Briefly: Intravenous effective dose against L-5-hydroxytryptophan induced generalized tremors in mice. Type of series: functional.
In series [5] the target is T2, Amine oxidase [flavin-containing] A (Homo sapiens, UniProt P21397).
T2 sequence (P21397 whole entry): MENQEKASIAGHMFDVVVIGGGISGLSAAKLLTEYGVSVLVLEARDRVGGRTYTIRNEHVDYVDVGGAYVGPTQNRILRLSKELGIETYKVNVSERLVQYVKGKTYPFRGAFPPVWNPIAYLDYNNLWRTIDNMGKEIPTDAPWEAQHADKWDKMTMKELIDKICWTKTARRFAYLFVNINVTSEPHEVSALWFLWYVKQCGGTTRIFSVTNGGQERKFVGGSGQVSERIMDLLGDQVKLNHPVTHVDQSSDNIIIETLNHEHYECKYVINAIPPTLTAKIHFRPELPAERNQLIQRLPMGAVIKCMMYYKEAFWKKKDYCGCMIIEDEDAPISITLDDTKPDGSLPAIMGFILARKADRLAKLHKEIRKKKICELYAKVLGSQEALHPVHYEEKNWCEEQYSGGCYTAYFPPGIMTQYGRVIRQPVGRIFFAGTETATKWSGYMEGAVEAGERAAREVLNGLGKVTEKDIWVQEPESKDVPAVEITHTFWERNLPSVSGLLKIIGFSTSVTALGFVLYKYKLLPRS
Kind of series: Compound was tested for inhibition of MAOA in human brain, heart, liver and duodenum homogenates; Range is 1.9-3.6 nM. In kind it is tissue-based.

The species named for series [6] is Mus musculus. Kind of series: Oral effective dose against phenylethylamine-induced stereotypy in mice. Type of series: functional.

For `COC[C@H]1CN(c2ccc(OCC[C@@H](O)C(F)(F)F)cc2)C(=O)O1` [BEFLOXATONE], the half-life (in general, the time in which the quantity being followed falls by half) in series [1] worked out at 20.4 min. The 50% effective dose (ED50) (in general, the midpoint of the dose-response relation) in the series with Mus musculus [2] came to 0.2 mg/kg; in the series on Mus musculus [4], 0.07 mg/kg; in the series filed under Mus musculus [6], 58 mg/kg. The Ri in series [3] and in series [5] was 1.9 nM in each case.
